Results from patent publication US11944092B2, “Compositions for controlling phytoplankton contamination” (BLUEGREEN WATER TECHNOLOGIES LTD., priority 2019, dated 2024).

Tests used:
Microcystis [1] = conditions: cited from earlier work
Planktothrix agardhii [2] = conditions: cited from earlier work
Microcystis [3] = conditions: in vivo
Planktothrix agardhii [4] = conditions: equivalent of 2.5 mg/L in 1140 L, 9500 cm^2
[5] = Buoyancy of sodium percarbonate in 15 ml vials; format: physicochemical; conditions: 5 grams, FIG. 5
[6] = Buoyancy by weighing-pan set-up (FIG. 2); format: physicochemical
Excerpt: FIG. 2 schematically illustrates an experimental set-up for testing the buoyancy of the herein disclosed compositions, including (1) a balance; (2) a measuring pod with an aperture; (3) an underneath hook to measure weight; (4) a beaker filled with water simulating an aquatic system; (5) a weighing-pan.
In order to test the buoyancy of the herein disclosed compositions, an experimental set-up, schematically illustrated in FIG. 2, was applied. In this set-up, a laboratory balance 1 (0-2,000±0.1 g) was positioned to measure the weight of a composition placed on a weighing-pan 5 immersed in a beaker filled with water 4. If the composition is non-buoyant (AI without the coating material) an increase in weight is anticipated (‘negative control’). Oppositely, if the composition is buoyant, the weight is expected to remain essentially unchanged.

[7] = Buoyancy and resurfacing of coated copper sulfate compositions in water (vials, glasses; visual); format: physicochemical; conditions: granular copper sulfate with different % (w/w) coating placed in water, FIG. 1
[8] = Sedimentation analysis in 10-liter cylinders with sediment; format: physicochemical; conditions: 10-liter cylinder, after one hour, FIG. 6
Procedure: Two 10-liter cylinders were filled with water and supplemented with sediment. To one cylinder, granules of copper sulfate pentahydrate (mimicking standard treatment) were added, while a buoyant copper-based composition was added to the other cylinder.

[9] = system: algal bloom (cyanobacterial biomass); assay: Seasonal treatment of algal bloom at ~1.04 km^2 irrigation pond; format: in vivo
Procedure: As detailed in FIG. 9, biomass and total copper concentrations were measured during the first two days to assess efficacy and minimal required AI concentrations. Cyanobacterial biomass was measured using a YSI Exo-3 probe that was supplied with a GPS. […] Water samples for total copper concentrations, as well as estimation of particle time travel on the water, as well as final coverage, was done with a kayak and by using a laser distance/range measurer. Total copper concentrations were measured with a YSI 9300 photometer in accordance with manufacturer instructions.

For `OO` [H2O2, hydrogen peroxide], the “H2O2 dose at which abundance of Microcystis decreased” value (Microcystis [1]; 150 L mesocosm) is listed as no less than 4 mg/L, the “cell density of Microcystis” value (Microcystis [1]; H2O2 dose 2 mg/L) is listed as “did not decrease” and the “time to reappearance of high Microcystis cell density” value (Microcystis [1]; H2O2 dose of 2 mg/L) is listed as 11 days. The “lowest H2O2 concentration that sufficed to significantly reduce the P. agardhii population” value (Planktothrix agardhii [2]; Plexiglas containers, 2*10^6 cells/mL) was 2.5 mg/L, the “photosynthetic performance and cell counts of zooplankton population” value (Planktothrix agardhii [2]; at 2.5 mg/L H2O2) was “severely reduced” and the “time until cyanobacteria population started to recover” value (Planktothrix agardhii [2]; natural water body) was 6-7 weeks. For the same compound, the “H2O2 amount per surface area at which Microcystis decreased” value (Microcystis [3]) was no less than 2.44 gr/m^2 and the “lowest effective H2O2 amount per surface area” value (Planktothrix agardhii [4]) was 2.85 gr/m^2.

For `O=C([O-])[O-].O=C([O-])[O-].OO.OO.OO.[Na+].[Na+].[Na+].[Na+]` [uncoated sodium percarbonate, sodium percarbonate], the buoyancy in water [5] was “sank immediately”.

With `O=c1nc([O-])n(Cl)c(=O)n1Cl.[Na+]` [un-encapsulated NADCC, sodium dichloroisocyanurate] the “weight increase on weighing-pan” value ([6]; 9.5 grams placed on the weighing-pan in water) was roughly 5.3 g.

In the case of copper sulfate pentahydrate, the “buoyancy in water (floating, sinking, resurfacing)” value ([7]; listed as non-coated active ingredient (0.0% (w/w))) is reported as “sank immediately to the bottom”, the “buoyancy in water (floating, sinking, resurfacing)” value ([7]; listed as raw copper salt (“0% coating”)) is reported as “sunk immediately after dispersion” and the “behaviour in water column with sediment” value [8] is reported as “immediately sank into the sediment”. The average chlorophyll-a concentration ([9]; 2015, 6 aerial applications, total of 8,000 kg) was 100-200 μg chlorophyll-a/L, the “average cyanobacterial concentration (chlorophyll-a)” value ([9]; 2016, 7 aerial applications of 2000 kg) was 60 to 80 µg/L and the “weight increase on weighing-pan” value ([6]; samples of 100 grams, set-up of FIG. 2) was 50%±3%.
